We go through 1 molecule from ChEMBL document CHEMBL6078677, “Discovery and optimization of tetrahydroacridine derivatives as a novel class of antibiotics against multidrug-resistant Gram-positive pathogens by targeting type I signal peptidase and disrupting bacterial membrane” (Eur J Med Chem, 2025).

What is called MIC is the smallest concentration in the dilution series that meets the test's criterion for growth inhibition. Broadly, the half-life is the time needed for the level to fall by half in the phase considered.

≈ marks a conversion by molar mass, not a printed value.

In one data set the test system is Escherichia coli. The experiment in a line: Antimicrobial activity against Escherichia coli ATCC 25922 assessed as inhibition of visible growth of bacteria incubated for 20 hrs by broth microdilution method. The data set is classed as functional. In general terms: Dilution methods test growth across graded concentrations, often in twofold steps.
The nature of data set [1]: Metabolic stability in human liver microsomes assessed as half-life at 100 uM preincubated for 5 mins followed by NADPH addition and measured upto 60 mins by LC-MS/MS analysis. The data set is classed as ADME, Microsome. Particulars: time < 65 min. Background: Microsomes from liver hold many membrane-bound enzymes, among them those of drug oxidation.
The subject of the next data set is Staphylococcus aureus. The experiment in a line: Antimicrobial activity against Staphylococcus aureus ATCC 29213 assessed as inhibition of visible growth of bacteria incubated for 20 hrs by broth microdilution method. The data set is classed as functional.

For `CC1C/C(=C\c2ccc(-c3ccc(Cl)c(C(F)(F)F)c3)s2)c2nc3ccccc3c(C(=O)O)c2C1` (racemic), the MIC in the data set with Escherichia coli is more than 128 µg/mL; with Staphylococcus aureus, 1 µg/mL (≈ 1.95 µM). The half-life at 100 µM in data set [1] is more than 185 min.
